{"source": "the supplement of paper PMC10307832", "assay_in_all_cases": "relative viability (nuclei count vs DMSO), 5 days (fraction); higher = more cells survive", "key": {"[1]": {"tested_on": "A-427", "summary_of_the_method": "(§1)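 A single step with final 0.05% Triton X-100, 1% formaldehyde and 1 ug/ml Hoechst fixed the cells and stained nuclei 5 days after treatment. Lung cancer cell lines in 1536-well plates had been treated by pin tool the day after seeding with one drug alone or a fixed anchor-drug dose plus five library-drug doses (not always all listed) in √10 steps, and nuclei were counted on 4× images. Relative viability is the ratio of nuclei in treated wells to nuclei in vehicle wells, taken as the median of duplicate plates.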"}, "[2]": {"tested_on": "COR-L 105", "summary_of_the_method": "as §1"}, "[3]": {"tested_on": "EPLC-272H", "summary_of_the_method": "as §1"}, "[4]": {"tested_on": "HCC-366", "summary_of_the_method": "as §1"}, "[5]": {"tested_on": "HCC-78", "summary_of_the_method": "as §1"}, "[6]": {"tested_on": "HOP-62", "summary_of_the_method": "as §1"}, "[7]": {"tested_on": "LC-2-ad", "summary_of_the_method": "as §1"}, "[8]": {"tested_on": "LCLC-97TM1", "summary_of_the_method": "as §1"}, "[9]": {"tested_on": "LU99A", "summary_of_the_method": "as §1"}, "[10]": {"tested_on": "LXF-289", "summary_of_the_method": "as §1"}, "[11]": {"tested_on": "NCI-H1755", "summary_of_the_method": "as §1"}, "[12]": {"tested_on": "NCI-H1792", "summary_of_the_method": "as §1"}, "[13]": {"tested_on": "NCI-H1793", "summary_of_the_method": "as §1"}, "[14]": {"tested_on": "NCI-H1915", "summary_of_the_method": "as §1"}, "[15]": {"tested_on": "NCI-H1944", "summary_of_the_method": "as §1"}, "[16]": {"tested_on": "NCI-H1975", "summary_of_the_method": "as §1"}, "[17]": {"tested_on": "NCI-H2085", "summary_of_the_method": "as §1"}, "[18]": {"tested_on": "NCI-H2170", "summary_of_the_method": "as §1"}, "[19]": {"tested_on": "NCI-H358", "summary_of_the_method": "as §1"}, "[20]": {"tested_on": "NCI-H460", "summary_of_the_method": "as §1"}, "[21]": {"tested_on": "SK-LU-1", "summary_of_the_method": "as §1"}, "[22]": {"tested_on": "SW 900", "summary_of_the_method": "as §1"}, "[23]": {"tested_on": "UMC-11", "summary_of_the_method": "as §1"}}}
{"smiles": "Oc1nc(-c2ccc(C(F)(F)F)cc2)nc2c1CSCC2", "note": "[XAV939] + N=C(N)NC(=N)NCCc1ccccc1 [Phenformin] (partner 250 µM)", "values": [{"measurement": "relative viability", "setting": "[1]; first compound 0.08 µM", "value": 0.365}, {"measurement": "relative viability", "setting": "[1]; first compound 0.253 µM", "value": 0.328}, {"measurement": "relative viability", "setting": "[1]; first compound 0.8 µM", "value": 0.314}, {"measurement": "relative viability", "setting": "[1]; first compound 2.53 µM", "value": 0.294}, {"measurement": "relative viability", "setting": "[2]; first compound 0.08 µM", "value": 0.51}, {"measurement": "relative viability", "setting": "[2]; first compound 0.253 µM", "value": 0.492}, {"measurement": "relative viability", "setting": "[2]; first compound 0.8 µM", "value": 0.434}, {"measurement": "relative viability", "setting": "[2]; first compound 2.53 µM", "value": 0.381}, {"measurement": "relative viability", "setting": "[3]; first compound 0.08 µM", "value": 0.311}, {"measurement": "relative viability", "setting": "[3]; first compound 0.253 µM", "value": 0.316}, {"measurement": "relative viability", "setting": "[3]; first compound 0.8 µM", "value": 0.308}, {"measurement": "relative viability", "setting": "[3]; first compound 2.53 µM", "value": 0.325}, {"measurement": "relative viability", "setting": "[4]; first compound 0.08 µM", "value": 0.638}, {"measurement": "relative viability", "setting": "[4]; first compound 0.253 µM", "value": 0.596}, {"measurement": "relative viability", "setting": "[4]; first compound 0.8 µM", "value": 0.65}, {"measurement": "relative viability", "setting": "[4]; first compound 2.53 µM", "value": 0.634}, {"measurement": "relative viability", "setting": "[5]; first compound 0.08 µM", "value": 0.711}, {"measurement": "relative viability", "setting": "[5]; first compound 0.253 µM", "value": 0.62}, {"measurement": "relative viability", "setting": "[5]; first compound 0.8 µM", "value": 0.66}, {"measurement": "relative viability", "setting": "[5]; first compound 2.53 µM", "value": 0.516}, {"measurement": "relative viability", "setting": "[6]; first compound 0.08 µM", "value": 0.8}, {"measurement": "relative viability", "setting": "[6]; first compound 0.253 µM", "value": 0.623}, {"measurement": "relative viability", "setting": "[6]; first compound 0.8 µM", "value": 0.646}, {"measurement": "relative viability", "setting": "[6]; first compound 2.53 µM", "value": 0.593}, {"measurement": "relative viability", "setting": "[7]; first compound 0.08 µM", "value": 0.638}, {"measurement": "relative viability", "setting": "[7]; first compound 0.253 µM", "value": 0.571}, {"measurement": "relative viability", "setting": "[7]; first compound 0.8 µM", "value": 0.569}, {"measurement": "relative viability", "setting": "[7]; first compound 2.53 µM", "value": 0.575}, {"measurement": "relative viability", "setting": "[8]; first compound 0.08 µM", "value": 0.474}, {"measurement": "relative viability", "setting": "[8]; first compound 0.253 µM", "value": 0.352}, {"measurement": "relative viability", "setting": "[8]; first compound 0.8 µM", "value": 0.434}, {"measurement": "relative viability", "setting": "[8]; first compound 2.53 µM", "value": 0.373}, {"measurement": "relative viability", "setting": "[9]; first compound 0.08 µM", "value": 0.956}, {"measurement": "relative viability", "setting": "[9]; first compound 0.253 µM", "value": 0.863}, {"measurement": "relative viability", "setting": "[9]; first compound 0.8 µM", "value": 0.807}, {"measurement": "relative viability", "setting": "[9]; first compound 2.53 µM", "value": 0.853}, {"measurement": "relative viability", "setting": "[10]; first compound 0.08 µM", "value": 0.556}, {"measurement": "relative viability", "setting": "[10]; first compound 0.253 µM", "value": 0.48}, {"measurement": "relative viability", "setting": "[10]; first compound 0.8 µM", "value": 0.539}, {"measurement": "relative viability", "setting": "[10]; first compound 2.53 µM", "value": 0.546}, {"measurement": "relative viability", "setting": "[11]; first compound 0.08 µM", "value": 0.621}, {"measurement": "relative viability", "setting": "[11]; first compound 0.253 µM", "value": 0.543}, {"measurement": "relative viability", "setting": "[11]; first compound 0.8 µM", "value": 0.614}, {"measurement": "relative viability", "setting": "[11]; first compound 2.53 µM", "value": 0.563}, {"measurement": "relative viability", "setting": "[12]; first compound 0.08 µM", "value": 0.432}, {"measurement": "relative viability", "setting": "[12]; first compound 0.253 µM", "value": 0.308}, {"measurement": "relative viability", "setting": "[12]; first compound 0.8 µM", "value": 0.303}, {"measurement": "relative viability", "setting": "[12]; first compound 2.53 µM", "value": 0.331}, {"measurement": "relative viability", "setting": "[13]; first compound 0.08 µM", "value": 0.495}, {"measurement": "relative viability", "setting": "[13]; first compound 0.253 µM", "value": 0.389}, {"measurement": "relative viability", "setting": "[13]; first compound 0.8 µM", "value": 0.302}, {"measurement": "relative viability", "setting": "[13]; first compound 2.53 µM", "value": 0.354}, {"measurement": "relative viability", "setting": "[14]; first compound 0.08 µM", "value": 0.384}, {"measurement": "relative viability", "setting": "[14]; first compound 0.253 µM", "value": 0.258}, {"measurement": "relative viability", "setting": "[14]; first compound 0.8 µM", "value": 0.377}, {"measurement": "relative viability", "setting": "[14]; first compound 2.53 µM", "value": 0.369}, {"measurement": "relative viability", "setting": "[15]; first compound 0.08 µM", "value": 0.233}, {"measurement": "relative viability", "setting": "[15]; first compound 0.253 µM", "value": 0.198}, {"measurement": "relative viability", "setting": "[15]; first compound 0.8 µM", "value": 0.199}, {"measurement": "relative viability", "setting": "[15]; first compound 2.53 µM", "value": 0.17}, {"measurement": "relative viability", "setting": "[16]; first compound 0.08 µM", "value": 0.409}, {"measurement": "relative viability", "setting": "[16]; first compound 0.253 µM", "value": 0.42}, {"measurement": "relative viability", "setting": "[16]; first compound 0.8 µM", "value": 0.382}, {"measurement": "relative viability", "setting": "[16]; first compound 2.53 µM", "value": 0.37}, {"measurement": "relative viability", "setting": "[17]; first compound 0.08 µM", "value": 0.741}, {"measurement": "relative viability", "setting": "[17]; first compound 0.253 µM", "value": 0.686}, {"measurement": "relative viability", "setting": "[17]; first compound 0.8 µM", "value": 0.737}, {"measurement": "relative viability", "setting": "[17]; first compound 2.53 µM", "value": 0.653}, {"measurement": "relative viability", "setting": "[18]; first compound 0.08 µM", "value": 0.393}, {"measurement": "relative viability", "setting": "[18]; first compound 0.253 µM", "value": 0.394}, {"measurement": "relative viability", "setting": "[18]; first compound 0.8 µM", "value": 0.413}, {"measurement": "relative viability", "setting": "[18]; first compound 2.53 µM", "value": 0.362}, {"measurement": "relative viability", "setting": "[19]; first compound 0.08 µM", "value": 0.311}, {"measurement": "relative viability", "setting": "[19]; first compound 0.253 µM", "value": 0.235}, {"measurement": "relative viability", "setting": "[19]; first compound 0.8 µM", "value": 0.311}, {"measurement": "relative viability", "setting": "[19]; first compound 2.53 µM", "value": 0.328}, {"measurement": "relative viability", "setting": "[20]; first compound 0.08 µM", "value": 0.526}, {"measurement": "relative viability", "setting": "[20]; first compound 0.253 µM", "value": 0.408}, {"measurement": "relative viability", "setting": "[20]; first compound 0.8 µM", "value": 0.53}, {"measurement": "relative viability", "setting": "[20]; first compound 2.53 µM", "value": 0.502}, {"measurement": "relative viability", "setting": "[21]; first compound 0.08 µM", "value": 0.548}, {"measurement": "relative viability", "setting": "[21]; first compound 0.253 µM", "value": 0.513}, {"measurement": "relative viability", "setting": "[21]; first compound 0.8 µM", "value": 0.447}, {"measurement": "relative viability", "setting": "[21]; first compound 2.53 µM", "value": 0.556}, {"measurement": "relative viability", "setting": "[22]; first compound 0.08 µM", "value": 0.657}, {"measurement": "relative viability", "setting": "[22]; first compound 0.253 µM", "value": 0.49}, {"measurement": "relative viability", "setting": "[22]; first compound 0.8 µM", "value": 0.537}, {"measurement": "relative viability", "setting": "[22]; first compound 2.53 µM", "value": 0.419}, {"measurement": "relative viability", "setting": "[23]; first compound 0.08 µM", "value": 0.328}, {"measurement": "relative viability", "setting": "[23]; first compound 0.253 µM", "value": 0.32}, {"measurement": "relative viability", "setting": "[23]; first compound 0.8 µM", "value": 0.248}, {"measurement": "relative viability", "setting": "[23]; first compound 2.53 µM", "value": 0.201}]}
